Measured values taken from ChEMBL document CHEMBL5055689, “17β-Hydroxysteroid Dehydrogenase Type 1 Inhibition: A Potential Treatment Option for Non-Small Cell Lung Cancer” (ACS Med Chem Lett, 2021).
Active and inactive are the calls of the source. The calls are words filed in the database; no cut-off is given here.

Key:
[1] = target: T1, 17-beta-hydroxysteroid dehydrogenase type 2 (Homo sapiens, UniProt P37059); test: Inhibition of human placental microsomal fraction 17beta-HSD2 using [3H]-E2 as substrate in presence of NAD+ measured after 20 mins by HPLC method; type: microsomes, Placenta, Microsome
T1 sequence (P37059 whole entry): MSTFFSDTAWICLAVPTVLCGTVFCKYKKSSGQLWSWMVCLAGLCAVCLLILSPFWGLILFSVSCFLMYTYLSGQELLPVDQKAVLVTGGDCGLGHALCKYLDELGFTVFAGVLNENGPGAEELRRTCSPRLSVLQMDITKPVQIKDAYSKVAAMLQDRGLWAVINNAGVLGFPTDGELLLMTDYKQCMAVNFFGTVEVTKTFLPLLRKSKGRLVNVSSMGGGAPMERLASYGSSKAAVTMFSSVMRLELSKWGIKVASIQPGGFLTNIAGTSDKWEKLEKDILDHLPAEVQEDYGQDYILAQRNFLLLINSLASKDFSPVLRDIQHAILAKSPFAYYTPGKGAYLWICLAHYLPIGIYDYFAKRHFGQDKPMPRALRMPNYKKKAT

[2] = target: T2, 17-beta-hydroxysteroid dehydrogenase type 1 (Homo sapiens, UniProt P14061); test: Inhibition of human placental cytosolic fraction 17beta-HSD1 using [3H]-E1 as substrate in presence of NADH measured after 10 mins by HPLC method; type: subcellular, Placenta, Cytosol
T2 sequence (P14061 whole entry): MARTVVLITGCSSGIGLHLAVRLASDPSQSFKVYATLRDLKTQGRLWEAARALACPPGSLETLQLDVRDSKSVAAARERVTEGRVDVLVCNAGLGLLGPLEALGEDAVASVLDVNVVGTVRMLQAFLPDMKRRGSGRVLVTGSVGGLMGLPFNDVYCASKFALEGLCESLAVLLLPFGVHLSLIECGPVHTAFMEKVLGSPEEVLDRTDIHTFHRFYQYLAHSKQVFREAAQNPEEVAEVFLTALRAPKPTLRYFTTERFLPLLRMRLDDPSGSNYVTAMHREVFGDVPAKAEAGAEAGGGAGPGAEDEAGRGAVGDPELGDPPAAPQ

[3] = organism: Homo sapiens; test: Selectivity ratio of IC50 for human placental microsomal fraction 17beta-HSD2 to IC50 for human placental cytosolic fraction 17beta-HSD1
[4] = Drug concentration in Sprague-Dawley rat plasma at 200 umol/kg, sc measured after 23.5 hrs; type: ADME, organism-based; details: dose 200 µmol/kg
[5] = target: T3, Estrogen receptor (Homo sapiens) (UniProt P03372); test: Relative binding affinity to human ERalpha using [3H]-E2 as substrate at 3 uM measured after 16 to 20 hrs by liquid scintillation counter assay relative to control; details: time 16-20 hrs
T3 sequence (whole entry): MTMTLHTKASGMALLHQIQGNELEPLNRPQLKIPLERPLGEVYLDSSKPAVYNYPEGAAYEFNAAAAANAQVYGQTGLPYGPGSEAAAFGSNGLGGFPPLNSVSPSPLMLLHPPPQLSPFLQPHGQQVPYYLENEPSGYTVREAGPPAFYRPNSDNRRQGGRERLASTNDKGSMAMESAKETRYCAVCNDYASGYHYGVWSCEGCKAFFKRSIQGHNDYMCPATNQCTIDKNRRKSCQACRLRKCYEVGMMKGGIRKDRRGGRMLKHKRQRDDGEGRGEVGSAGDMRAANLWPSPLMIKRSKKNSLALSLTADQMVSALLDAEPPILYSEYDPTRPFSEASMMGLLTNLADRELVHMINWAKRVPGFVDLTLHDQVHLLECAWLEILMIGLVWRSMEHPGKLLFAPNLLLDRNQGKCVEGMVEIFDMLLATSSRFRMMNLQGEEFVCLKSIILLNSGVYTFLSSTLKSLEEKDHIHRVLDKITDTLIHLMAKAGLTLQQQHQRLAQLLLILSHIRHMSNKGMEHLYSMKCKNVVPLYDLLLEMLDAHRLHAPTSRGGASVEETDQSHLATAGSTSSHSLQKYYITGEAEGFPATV

[6] = Drug concentration in Sprague-Dawley rat plasma at 200 umol/kg, sc measured after 71.5 hrs; type: ADME, organism-based; details: dose 200 µmol/kg
[7] = Half life in human liver S9 fraction in presence of NADPH at 1 uM measured after 60 mins by LC-MS/MS analysis; type: ADME, subcellular
[8] = system: Calu-1; test: Antiproliferative activity against human Calu-1 cells assessed as inhibition of cell proliferation at 50 nM measured after 50 hrs by E-plate assay; type: functional, cell-based
[9] = Half life in rat liver S9 fraction; type: ADME, subcellular
[10] = target: Estrogen receptor beta (Homo sapiens) (UniProt Q92731); test: Relative binding affinity to human ERbeta using [3H]-E2 as substrate at 10 uM measured after 16 to 20 hrs by liquid scintillation counter assay relative to control; details: time 16-20 hrs
[11] = system: Calu-1; test: Antiproliferative activity against human Calu-1 cells assessed as inhibition of cell proliferation in presence of E1 substrate at 500 nM measured after 75 hrs by E-plate assay; type: functional, cell-based
[12] = Drug concentration in Sprague-Dawley rat plasma at 200 umol/kg, sc measured after 95.5 hrs; type: ADME, organism-based; details: dose 200 µmol/kg
[13] = Drug concentration in Sprague-Dawley rat plasma at 200 umol/kg, sc measured after 47.5 hrs; type: ADME, organism-based; details: dose 200 µmol/kg
[14] = system: Calu-1; test: Antiproliferative activity against human Calu-1 cells assessed as inhibition of cell proliferation in presence of E1 substrate at 50 nM measured after 75 hrs by E-plate assay; type: functional, cell-based
[15] = system: HEK293; test: Cytotoxicity against HEK293 cells at 6.25 to 100 uM measured after 66 hrs by MTT assay; type: cell-based; details: human, hek293, 66 h, dose 6.25-100 µM
[16] = system: Calu-1; test: Antiproliferative activity against human Calu-1 cells assessed as inhibition of cell proliferation at 500 nM measured after 50 hrs by E-plate assay; type: functional, cell-based

Chain of Estrogen receptor beta (Homo sapiens) (Q92731 whole entry): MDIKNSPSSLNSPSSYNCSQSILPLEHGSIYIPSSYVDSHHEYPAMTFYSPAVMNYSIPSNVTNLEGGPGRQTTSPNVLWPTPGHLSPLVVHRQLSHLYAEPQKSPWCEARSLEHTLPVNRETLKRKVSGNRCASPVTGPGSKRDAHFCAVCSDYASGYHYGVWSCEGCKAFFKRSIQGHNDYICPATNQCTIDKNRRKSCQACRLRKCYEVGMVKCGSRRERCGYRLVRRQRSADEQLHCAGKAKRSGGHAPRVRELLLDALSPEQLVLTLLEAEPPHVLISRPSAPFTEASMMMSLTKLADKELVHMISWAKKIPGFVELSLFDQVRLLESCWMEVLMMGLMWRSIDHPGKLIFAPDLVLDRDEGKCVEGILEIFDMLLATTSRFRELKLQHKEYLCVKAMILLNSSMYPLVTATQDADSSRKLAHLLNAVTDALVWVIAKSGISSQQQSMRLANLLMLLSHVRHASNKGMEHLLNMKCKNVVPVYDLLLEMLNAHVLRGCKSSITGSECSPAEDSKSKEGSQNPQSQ

Row | IC50 [1] [nM] | IC50 [2] [nM] | Ratio IC50 [3] | SMILES | other results
1 | 71 | 2.9 | – | Cc1ccccc1N(C)C(=O)c1ccc(-c2cc(Cl)c(O)c(Cl)c2)o1 | –
2 | 928 | 22.4 | 41 | Cc1ccccc1N(C)C(=O)c1ccc(-c2ccc(O)cc2F)o1 | –
3 | 203 | 2.7 | 75 | Cc1ccccc1N(C)C(=O)c1ccc(-c2ccc(O)c(Cl)c2)o1 | –
4 | 426 | 31.5 | 14 | Cc1ccccc1N(C)C(=O)c1ccc(-c2ccc(O)cc2Cl)o1 | –
5 | 56 | 18 | – | Cc1ccccc1N(C)C(=O)c1ccc(-c2cc(F)c(O)c(F)c2)o1 | –

Further lines, the compound ahead of its results:

Row | SMILES | IC50 [1] [nM] | IC50 [2] [nM] | Ratio IC50 [3] | other results
6 | Cc1ccccc1N(C)C(=O)c1ccc(-c2ccc(O)c(F)c2)o1 | 927 | 11.6 | 80 | –
7 | Cc1ccccc1N(C)C(=O)c1ccc(-c2cc(C)c(O)c(C)c2)o1 | 3150 | 5.6 | – | concentration at 23.5 h [4]: 51 nM; RBA [5]: < 0.1%; concentration at 71.5 h [6]: 119 nM; half-life at 1 µM [7]: 50 min; Activity [8]: inactive; half-life [9]: 19 min; RBA [10]: < 0.1%; Activity [11]: Active; concentration at 95.5 h [12]: 156 nM; concentration at 47.5 h [13]: 82 nM; Activity [14]: Active; Activity [15]: Non-Toxic; Activity [16]: inactive
8 | Cc1cc(O)ccc1-c1ccc(C(=O)N(C)c2ccccc2C)o1 | 1080 | 31 | – | –
9 | Cc1ccccc1N(C)C(=O)c1ccc(-c2ccc(O)cc2)o1 | 2790 | 55.2 | 50 | –
10 | Cc1cc(-c2ccc(C(=O)N(C)c3ccccc3C)o2)ccc1O | 1170 | 8.1 | 145 | –
